From ChEMBL document CHEMBL1795286, “A concise synthesis and antimicrobial activities of 3-polyamino-23,24-bisnorcholanes as steroid-polyamine conjugates” (2011)

Assays:
Bacillus subtilis = test: Antimicrobial activity against Bacillus subtilis ATCC 6633 after 18 hrs by twofold agar dilution method; format: functional; conditions: ATCC 6633, 18 h
Escherichia coli [1] = test: Antimicrobial activity against Escherichia coli 3190Y after 18 hrs by twofold agar dilution method; format: functional
Proteus vulgaris = test: Antimicrobial activity against Proteus vulgaris 6059 after 18 hrs by twofold agar dilution method; format: functional; conditions: Proteus vulgaris, 6059, 18 h
Micrococcus luteus = test: Antimicrobial activity against Micrococcus luteus ATCC 9341 after 18 hrs by twofold agar dilution method; format: functional; conditions: ATCC 9341, 18 h
Staphylococcus aureus [2] = test: Antimicrobial activity against Staphylococcus aureus ATCC 25923 after 18 hrs by twofold agar dilution method; format: functional; conditions: ATCC 25923, 18 h, read-out: MIC
Staphylococcus aureus [3] = test: Antimicrobial activity against Staphylococcus aureus 77 after 18 hrs by twofold agar dilution method; format: functional; conditions: Staphylococcus aureus, 77, 18 h
Moraxella catarrhalis [4] = test: Antimicrobial activity against Moraxella catarrhalis 25240 after 18 hrs by twofold agar dilution method; format: functional; conditions: Moraxella catarrhalis, 25240, 18 h
Pseudomonas aeruginosa = test: Antimicrobial activity against Pseudomonas aeruginosa 6065Y after 18 hrs by twofold agar dilution method; format: functional
Escherichia coli [5] = test: Antimicrobial activity against Escherichia coli ATCC 10536 after 18 hrs by twofold agar dilution method; format: functional; conditions: ATCC 10536, 18 h
Enterobacter cloacae [6] = test: Antimicrobial activity against Enterobacter cloacae P99 after 18 hrs by twofold agar dilution method; format: functional; conditions: P99, 18 h
Escherichia coli [7] = test: Antimicrobial activity against Escherichia coli 851E after 18 hrs by twofold agar dilution method; format: functional
Morganella morganii = test: Antimicrobial activity against Morganella morganii 1375E after 18 hrs by twofold agar dilution method; format: functional
Klebsiella aerogenes = test: Antimicrobial activity against Klebsiella aerogenes harboring beta-lactamase SHV-1 1976E mutant after 18 hrs by twofold agar dilution method; format: functional
Serratia marcescens [8] = test: Antimicrobial activity against Serratia marcescens 1826E after 18 hrs by twofold agar dilution method; format: functional
Staphylococcus aureus [9] = test: Antimicrobial activity against Staphylococcus aureus ATCC 6538P after 18 hrs by twofold agar dilution method; format: functional
Klebsiella pneumoniae = test: Antimicrobial activity against Klebsiella pneumoniae 2011E after 18 hrs by twofold agar dilution method; format: functional
Salmonella typhimurium [10] = test: Antimicrobial activity against Salmonella Typhimurium ATCC 14028 after 18 hrs by two-fold agar dilution method; format: functional, Salmonella enterica subsp. enterica serovar Typhimurium; conditions: Salmonella enterica, ATCC 14028, 18 h
Salmonella typhimurium [11] = test: Antimicrobial activity against Salmonella typhimurium ATCC 13311 after 18 hrs by twofold agar dilution method; format: functional, Salmonella enterica subsp. enterica serovar Typhimurium; conditions: Salmonella enterica, ATCC 13311, 18 h
Citrobacter koseri = test: Antimicrobial activity against Citrobacter diversus 2046 after 18 hrs by twofold agar dilution method; format: functional; conditions: Citrobacter koseri, 2046, 18 h
Staphylococcus aureus [12] = test: Antimicrobial activity against Staphylococcus aureus 241 after 18 hrs by twofold agar dilution method; format: functional; conditions: Staphylococcus aureus, 241, 18 h
Bacillus licheniformis = test: Antimicrobial activity against Bacillus licheniformis EMR after 18 hrs by twofold agar dilution method; format: functional; conditions: read-out: MIC
Enterococcus faecalis = test: Antimicrobial activity against Enterococcus faecalis ATCC 29212 after 18 hrs by twofold agar dilution method; format: functional; conditions: ATCC 29212, 18 h
Serratia marcescens [13] = test: Antimicrobial activity against Serratia marcescens ATCC 27117 after 18 hrs by twofold agar dilution method; format: functional; conditions: ATCC 27117, 18 h
Bacillus cereus = test: Antimicrobial activity against Bacillus cereus ATCC 27348 after 18 hrs by twofold agar dilution method; format: functional; conditions: ATCC 27348, 18 h
[14] = tested on: Acinetobacter calcoaceticus; test: Antimicrobial activity against Acinetobacter calcoaceticus ATCC 15473 after 18 hrs by twofold agar dilution method; format: functional; conditions: ATCC 15473, 18 h
Staphylococcus aureus [15] = test: Antimicrobial activity against Staphylococcus aureus giorgio after 18 hrs by twofold agar dilution method; format: functional
Enterobacter cloacae [16] = test: Antimicrobial activity against Enterobacter cloacae ATCC 27508 after 18 hrs by twofold agar dilution method; format: functional; conditions: ATCC 27508, 18 h
Escherichia coli [17] = test: Antimicrobial activity against Escherichia coli ATCC 25922 after 18 hrs by twofold agar dilution method; format: functional; conditions: ATCC 25922, 18 h
Moraxella catarrhalis [18] = test: Antimicrobial activity against Moraxella catarrhalis C2431 after 18 hrs by twofold agar dilution method; format: functional; conditions: C2431, 18 h
[19] = tested on: Staphylococcus epidermidis; test: Antimicrobial activity against Staphylococcus epidermidis 887E after 18 hrs by twofold agar dilution method; format: functional
Citrobacter freundii = test: Antimicrobial activity against Citrobacter freundii 8090 after 18 hrs by twofold agar dilution method; format: functional; conditions: Citrobacter freundii, 8090, 18 h

| SMILES | MIC (Bacillus subtilis) [µg/mL] | MIC (Proteus vulgaris) [µg/mL] | MIC (Staphylococcus aureus [2]) [µg/mL] | MIC (Pseudomonas aeruginosa) [µg/mL] | MIC (Enterobacter cloacae [6]) [µg/mL] | MIC (Escherichia coli [7]) [µg/mL] | MIC (Morganella morganii) [µg/mL] | MIC (Klebsiella aerogenes) [µg/mL] | MIC (Serratia marcescens [8]) [µg/mL] | MIC (Staphylococcus aureus [9]) [µg/mL] | MIC (Klebsiella pneumoniae) [µg/mL] | MIC (Salmonella typhimurium [10]) [µg/mL] | MIC (Salmonella typhimurium [11]) [µg/mL] | MIC (Citrobacter koseri) [µg/mL] | MIC (Bacillus licheniformis) [µg/mL] | MIC (Serratia marcescens [13]) [µg/mL] | MIC [14] [µg/mL] | MIC (Staphylococcus aureus [15]) [µg/mL] | MIC (Enterobacter cloacae [16]) [µg/mL] | MIC (Citrobacter freundii) [µg/mL] | other results |
| --- | --- | --- | --- | --- | --- | --- | --- | --- | --- | --- | --- | --- | --- | --- | --- | --- | --- | --- | --- | --- | --- |
| C[C@H](CO)[C@H]1CC[C@H]2[C@@H]3CC[C@@H]4C[C@H](NCCCNCCCCNCCCN)CC[C@]4(C)[C@H]3CC[C@]12C.Cl.Cl.Cl.Cl | 8 | > 32 | 32 | > 32 | > 32 | > 32 | > 32 | > 32 | > 32 | 8 | > 32 | > 32 | > 32 | > 32 | < 32 | > 32 | > 32 | 32 | > 32 | > 32 | MIC (Escherichia coli [1]): > 32 µg/mL; MIC (Micrococcus luteus; read-out: MIC): 8 µg/mL; MIC (Staphylococcus aureus [3]; read-out: MIC): 8 µg/mL; MIC (Moraxella catarrhalis [4]; read-out: MIC): < 32 µg/mL; MIC (Escherichia coli [5]): > 32 µg/mL; MIC (Staphylococcus aureus [12]; read-out: MIC): 8 µg/mL; MIC (Enterococcus faecalis): > 32 µg/mL; MIC (Bacillus cereus): > 32 µg/mL; MIC (Escherichia coli [17]): > 32 µg/mL; MIC (Moraxella catarrhalis [18]; read-out: MIC): < 32 µg/mL; MIC ([19]; read-out: MIC): 16 µg/mL |
| C[C@H](CO)[C@H]1CC[C@H]2[C@@H]3[C@H](O)C[C@H]4C[C@@H](NCCCNCCCCN)CC[C@]4(C)[C@H]3CC[C@]12C.Cl.Cl.Cl | 16 | > 32 | < 32 | > 32 | > 32 | > 32 | > 32 | > 32 | > 32 | 16 | > 32 | > 32 | > 32 | > 32 | < 32 | > 32 | > 32 | 32 | > 32 | > 32 | MIC (Escherichia coli [1]; read-out: MIC): < 32 µg/mL; MIC (Micrococcus luteus; read-out: MIC): 16 µg/mL; MIC (Staphylococcus aureus [3]; read-out: MIC): 16 µg/mL; MIC (Moraxella catarrhalis [4]; read-out: MIC): < 32 µg/mL; MIC (Escherichia coli [5]): > 32 µg/mL; MIC (Staphylococcus aureus [12]; read-out: MIC): 16 µg/mL; MIC (Enterococcus faecalis): > 32 µg/mL; MIC (Bacillus cereus): > 32 µg/mL; MIC (Escherichia coli [17]; read-out: MIC): < 32 µg/mL; MIC (Moraxella catarrhalis [18]): > 32 µg/mL; MIC ([19]; read-out: MIC): 32 µg/mL |
| C[C@H](CO)[C@H]1CC[C@H]2[C@@H]3CC[C@H]4C[C@@H](NCCCNCCCCNCCCN)CC[C@]4(C)[C@H]3CC[C@]12C.Cl.Cl.Cl.Cl | 8 | > 32 | 32 | > 32 | > 32 | > 32 | > 32 | > 32 | > 32 | 8 | > 32 | > 32 | > 32 | > 32 | 32 | > 32 | > 32 | 32 | > 32 | > 32 | MIC (Escherichia coli [1]): > 32 µg/mL; MIC (Micrococcus luteus; read-out: MIC): 32 µg/mL; MIC (Staphylococcus aureus [3]): > 32 µg/mL; MIC (Moraxella catarrhalis [4]; read-out: MIC): < 32 µg/mL; MIC (Escherichia coli [5]; read-out: MIC): < 32 µg/mL; MIC (Staphylococcus aureus [12]; read-out: MIC): 8 µg/mL; MIC (Enterococcus faecalis; read-out: MIC): < 32 µg/mL; MIC (Bacillus cereus; read-out: MIC): < 32 µg/mL; MIC (Escherichia coli [17]): > 32 µg/mL; MIC (Moraxella catarrhalis [18]; read-out: MIC): < 32 µg/mL; MIC ([19]; read-out: MIC): 32 µg/mL |
| C[C@H](CO)[C@H]1CC[C@H]2[C@@H]3CC[C@@H]4C[C@H](NCCCNCCCCN)CC[C@]4(C)[C@H]3CC[C@]12C.Cl.Cl.Cl | 32 | > 32 | 32 | > 32 | > 32 | > 32 | > 32 | > 32 | > 32 | 32 | > 32 | > 32 | > 32 | > 32 | < 32 | > 32 | > 32 | 32 | > 32 | > 32 | MIC (Escherichia coli [1]; read-out: MIC): < 32 µg/mL; MIC (Micrococcus luteus): > 32 µg/mL; MIC (Staphylococcus aureus [3]; read-out: MIC): 32 µg/mL; MIC (Moraxella catarrhalis [4]): > 32 µg/mL; MIC (Escherichia coli [5]; read-out: MIC): < 32 µg/mL; MIC (Staphylococcus aureus [12]): > 32 µg/mL; MIC (Enterococcus faecalis): > 32 µg/mL; MIC (Bacillus cereus): > 32 µg/mL; MIC (Escherichia coli [17]): > 32 µg/mL; MIC (Moraxella catarrhalis [18]): > 32 µg/mL; MIC [19]: > 32 µg/mL |
